From the supplement of paper PMC10307832

How the values were obtained:
Assay in all cases: relative viability (nuclei count vs DMSO), 5 days (fraction); higher = more cells survive
NCI-H1993 = test system: NCI-H1993
Procedure, shortened: (§1)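 Cells from lung cancer lines were seeded into 1536-well plates and, one day later, dosed by pin tool. Treatments were either a single drug or a fixed dose of an anchor drug with five library-drug doses (not always all listed) in √10 steps. After 5 days, nuclei were stained in a one-step fixation (final 0.05% Triton X-100, 1% formaldehyde, 1 ug/ml Hoechst) and counted on 4× images, and relative viability is the treated-to-vehicle nuclei ratio, as the median of duplicate plates.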

BEN = test system: BEN
Procedure, shortened: as §1

A-427 = test system: A-427
Procedure, shortened: as §1

SW 1573 = test system: SW 1573
Procedure, shortened: as §1

LC-2-ad = test system: LC-2-ad
Procedure, shortened: as §1

NCI-H1915 = test system: NCI-H1915
Procedure, shortened: as §1

NCI-H1793 = test system: NCI-H1793
Procedure, shortened: as §1

NCI-H520 = test system: NCI-H520
Procedure, shortened: as §1

LCLC-97TM1 = test system: LCLC-97TM1
Procedure, shortened: as §1

NCI-H2228 = test system: NCI-H2228
Procedure, shortened: as §1

PC-3 [JPC-3] = test system: PC-3 [JPC-3]
Procedure, shortened: as §1

NCI-H2347 = test system: NCI-H2347
Procedure, shortened: as §1

SMILES: O=C(O)CCCCC(CCSCc1ccccc1)SCc1ccccc1 (configuration not stated) [CPI-613] + CC(=O)c1c(C)c2cnc(Nc3ccc(N4CCNCC4)cn3)nc2n(C2CCCC2)c1=O [Palbociclib] (partner 0.5 µM)
- relative viability (NCI-H1993; first compound 50 µM): 0.715
- relative viability (NCI-H1993; first compound 158.11 µM): 0.468
- relative viability (NCI-H1993; first compound 500 µM): 0.38
- relative viability (BEN; first compound 5 µM): 0.457
- relative viability (BEN; first compound 15.81 µM): 0.506
- relative viability (BEN; first compound 50 µM): 0.487
- relative viability (BEN; first compound 158.11 µM): 0.483
- relative viability (BEN; first compound 500 µM): 0.42
- relative viability (A-427; first compound 5 µM): 0.519
- relative viability (A-427; first compound 15.81 µM): 0.477
- relative viability (A-427; first compound 50 µM): 0.486
- relative viability (A-427; first compound 158.11 µM): 0.332
- relative viability (A-427; first compound 500 µM): 0.384
- relative viability (SW 1573; first compound 5 µM): 0.336
- relative viability (SW 1573; first compound 15.81 µM): 0.579
- relative viability (SW 1573; first compound 50 µM): 0.384
- relative viability (SW 1573; first compound 158.11 µM): 0.0841
- relative viability (SW 1573; first compound 500 µM): 0.056
- relative viability (LC-2-ad; first compound 5 µM): 0.446
- relative viability (LC-2-ad; first compound 15.81 µM): 0.472
- relative viability (LC-2-ad; first compound 50 µM): 0.489
- relative viability (LC-2-ad; first compound 158.11 µM): 0.24
- relative viability (LC-2-ad; first compound 500 µM): 0.168
- relative viability (NCI-H1915; first compound 5 µM): 0.5
- relative viability (NCI-H1915; first compound 15.81 µM): 0.494
- relative viability (NCI-H1915; first compound 50 µM): 0.506
- relative viability (NCI-H1915; first compound 158.11 µM): 0.23
- relative viability (NCI-H1915; first compound 500 µM): 0.0812
- relative viability (NCI-H1793; first compound 5 µM): 0.269
- relative viability (NCI-H1793; first compound 15.81 µM): 0.33
- relative viability (NCI-H1793; first compound 50 µM): 0.258
- relative viability (NCI-H1793; first compound 158.11 µM): 0.112
- relative viability (NCI-H1793; first compound 500 µM): 0.0566
- relative viability (NCI-H520; first compound 5 µM): 0.225
- relative viability (NCI-H520; first compound 15.81 µM): 0.2
- relative viability (NCI-H520; first compound 50 µM): 0.169
- relative viability (NCI-H520; first compound 158.11 µM): 0.119
- relative viability (NCI-H520; first compound 500 µM): 0.117
- relative viability (LCLC-97TM1; first compound 5 µM): 0.232
- relative viability (LCLC-97TM1; first compound 15.81 µM): 0.207
- relative viability (LCLC-97TM1; first compound 50 µM): 0.177
- relative viability (LCLC-97TM1; first compound 158.11 µM): 0.124
- relative viability (LCLC-97TM1; first compound 500 µM): 0.0897
- relative viability (NCI-H2228; first compound 5 µM): 0.693
- relative viability (NCI-H2228; first compound 15.81 µM): 0.622
- relative viability (NCI-H2228; first compound 50 µM): 0.679
- relative viability (NCI-H2228; first compound 158.11 µM): 0.45
- relative viability (NCI-H2228; first compound 500 µM): 0.0679
- relative viability (PC-3 [JPC-3]; first compound 5 µM): 0.559
- relative viability (PC-3 [JPC-3]; first compound 50 µM): 0.512
- relative viability (PC-3 [JPC-3]; first compound 158.11 µM): 0.265
- relative viability (PC-3 [JPC-3]; first compound 500 µM): 0.263
- relative viability (NCI-H2347; first compound 5 µM): 0.434
- relative viability (NCI-H2347; first compound 15.81 µM): 0.379
- relative viability (NCI-H2347; first compound 50 µM): 0.404
- relative viability (NCI-H2347; first compound 158.11 µM): 0.392
- relative viability (NCI-H2347; first compound 500 µM): 0.22
